Experimental findings from PMC8579695, “The Stringent Response Inhibits 70S Ribosome Formation in Staphylococcus aureus by Impeding GTPase-Ribosome Interactions” (mBio, 2021) are described below.

Assay [1] addresses HflX (Staphylococcus aureus, UniProt Q2FYY9). As to the kind of experiment: DRaCALA binding of 32P-labeled nucleotides to 6×His-tagged HflX. The settings on record: for Bmax, HflX: mean ± SEM, Bmax values indicate the fraction bound. How it is done: (§1) The RA-GTPases RsgA, Era, RbgA, and HflX can bind to the guanosine nucleotides GTP, GDP, ppGpp, and pppGpp. Our previous work observed higher binding affinities for ppGpp over GTP, pointing toward a difference in binding between 5′ di- or triphosphate nucleotides ([27]). […] Furthermore, these previous experiments were performed using recombinant proteins fused to large MBP tags, which could impact binding affinity determination. To examine the nucleotide binding affinities of these RA-GTPases for GDP in comparison to ppGpp, pppGpp, and GTP, and in the absence of a large tag, we used a differential radial capillary action of ligand assay (DRaCALA) with recombinant RsgA, RbgA, Era, and HflX fused to a smaller 6× His tag (Fig. 1B; see also Fig. S2A to C in the supplemental material) ([36]). In each case, the affinities of 5′ diphosphate-containing GDP and ppGpp were similar in the low μM range and were 2- to 6-fold higher than the affinities of either GTP or pppGpp (Table 1).
(§2) Supplementary file : FIG S2 Examination of the binding of GDP, ppGpp, GTP, and pppGpp to RA-GTPases by DRaCALA. (A to C) Determination of binding affinities and Kd values for ^32P-labeled nucleotides to purified recombinant 6×His-tagged RsgA (A), Era (B), and HflX (C). Kd values were determined from the binding curves as previously described ([36]). (D to F) DRaCALA binding assay of recombinant RsgA (D), Era (E), and HflX (F) binding to ^32P-labeled GTP, ppGpp, and pppGpp in the presence or absence of 100 μM cold competitors (GTP, GDP, ppGpp, pppGpp, and ATP). All experiments were carried out in triplicate, with error bars representing standard deviations. Download FIG S2, TIF file, 0.9 MB.
(§3) The synthesis of (p)ppGpp and differential radial capillary action of ligand assay (DRaCALA) binding and competition assays were performed as described previously ([27]), using recombinant, 6×His-tagged protein at the concentrations specified in the figure legends.

Assay [2] concerns the target RsgA (Staphylococcus aureus, UniProt P67682). As to the kind of experiment: DRaCALA binding of 32P-labeled nucleotides to 6×His-tagged RsgA. The settings on record: for Bmax, RsgA: mean ± SEM, Bmax values indicate the fraction bound. The protocol: as §1, §2, §3
The test system of assay [3] is HflX binding to 50S ribosomes. Description: Stopped-flow fluorescence kinetics of HflX-Atto488 association to 50S subunits. More on the design: species or system Staphylococcus aureus. How it is done: FIG 3 Stopped-flow kinetic parameters of RA-GTPase association to the ribosomal subunits. (A) Schematic representation of the experimental setup for stopped-flow analysis. Nucleotides (brown circles), 50S subunits (orange oval), and Atto488-labeled RA-GTPases (purple hexagon) are indicated. Arrows indicate the direction of syringe movement. Atto-488 was excited using a 470-nm LED, and fluorescence was detected through a 515-nm long-pass filter. (B and C) Fluorescent change upon mixing 0.2 μM RbgA-Atto488 (B) or HflX-Atto488 (C) with 0.2 μM 50S ribosomal subunits in the presence of 100 μM GTP, ppGpp, and pppGpp or in the apo state using the stopped-flow fluorescence apparatus. Fluorescently labeled protein was also mixed with buffer lacking 50S subunits as a mixing control. Fluorescence of the reaction was tracked using exponential sampling for 10 s, and each curve represents the mean average of at least five technical replicates. (D) kapp1 dependence on 50S concentration for HflX complexed with GTP (green), ppGpp (pink), and pppGpp (black). (E) Same as for panel D for the kapp2 dependence. (F and G) Sum and product analyses of apparent rates during HflX association to the 50S subunit. HflX-Atto488 (0.05 μM) was mixed with increasing titrations of 50S ribosomal subunits over the fluorescently labeled protein in the presence of 20 μM GTP or ppGpp. The resultant traces (see Fig. S4) were analyzed by nonlinear regression using two exponential terms. The sum (F) and product (G) of apparent rates (kapp1 [D] and kapp2 [E]) were plotted as a function of the total concentration of the 50S subunits and HflX protein to determine the microscopic constants k1, k-1, k2, and k-2 (Table 2) and the resulting dissociation constant (Kd) (see Materials and Methods). Error bars represent the standard deviations of the apparent rates of four or more individual traces (D and E) or the standard errors of the two-step analysis (F and G).
Next, we used a constant concentration of protein in the presence of 200-fold excess of each nucleotide and titrated it with increasing concentrations of ribosomal subunits (see Fig. S4). […]
For initial controls, 0.2 μM Atto-488-labeled proteins were rapidly mixed with 0.2 μM E. coli 50S ribosomal subunits (purified as described elsewhere) in TAKM7 buffer (25 mM Tris-HCl [pH 7.4], 70 mM ammonium acetate, 30 mM KCl, 7 mM MgCl2) using an SX20 stopped-flow apparatus (Applied Photophysics) in the presence or absence of GTP, ppGpp, and pppGpp. […] Atto-488 was excited using a 470-nm LED and fluorescence was detected through a 515-nm long-pass filter. Reactions were monitored for 10 s, with 1,000 total data points per reaction. Each condition was subject to at least five technical repeats, with curves representing the mean average fluorescence of the technical repeats. […]

Assay [4] addresses RbgA (Staphylococcus aureus, UniProt A0A0H2XK72). As to the kind of experiment: DRaCALA binding of 32P-labeled nucleotides to 6×His-tagged RbgA. Conditions: for Bmax, RbgA: mean ± SEM, Bmax values indicate the fraction bound.
Text: FIG 1 Nucleotide binding characteristics of RA-GTPases. (A) Schematic representation of the domain structure of Era, RsgA, RbgA, and HflX from S. aureus. The conserved GTPase domain (G domain) is colored in green, and accessory domains are shown. (B) Determination of binding affinities and Kd values for ^32P-labeled GTP, GDP, ppGpp, and pppGpp with purified recombinant 6×His-tagged RbgA using DRaCALA, as previously described ([36]). Each point is the mean average of at least three technical replicates, and error bars indicate standard deviations. (C) Binding assay (DRaCALA) of recombinant RbgA binding to ^32P-labeled GTP, ppGpp, and pppGpp in the presence of an excess of cold competitor (GTP, GDP, ppGpp, pppGpp, or ATP). All experiments were carried out in triplicate, with error bars representing standard deviations.
as §1, §3

In assay [5] the target is Era (Staphylococcus aureus, UniProt Q2FGF6). As to the kind of experiment: DRaCALA binding of 32P-labeled nucleotides to 6×His-tagged Era. Conditions: for Bmax, Era: mean ± SEM, Bmax values indicate the fraction bound. How it is done: as §1, §2, §3
For assay [6], the system named is RA-GTPases RsgA, RbgA, Era, and HflX. As to the kind of experiment: DRaCALA binding and competition assays across the four RA-GTPases. Conditions: 100 μM cold competitor. More on the design: species or system Staphylococcus aureus. The text has this: FIG 1 Nucleotide binding characteristics of RA-GTPases. (A) Schematic representation of the domain structure of Era, RsgA, RbgA, and HflX from S. aureus. The conserved GTPase domain (G domain) is colored in green, and accessory domains are shown. (B) Determination of binding affinities and Kd values for ^32P-labeled GTP, GDP, ppGpp, and pppGpp with purified recombinant 6×His-tagged RbgA using DRaCALA, as previously described ([36]). Each point is the mean average of at least three technical replicates, and error bars indicate standard deviations. (C) Binding assay (DRaCALA) of recombinant RbgA binding to ^32P-labeled GTP, ppGpp, and pppGpp in the presence of an excess of cold competitor (GTP, GDP, ppGpp, pppGpp, or ATP). All experiments were carried out in triplicate, with error bars representing standard deviations. […]
Supplementary file : FIG S2 Examination of the binding of GDP, ppGpp, GTP, and pppGpp to RA-GTPases by DRaCALA. […] Kd values were determined from the binding curves as previously described ([36]). […]
Structural data places (p)ppGpp within the GTP-binding site of the RA-GTPase RbgA ([6]), indicating a competitive mode of inhibition. […] Based on our measured affinities (Table 1), we speculate that both GDP and ppGpp will outcompete other nucleotides for occupancy of the binding site. […]

In assay [7] the test system is HflX association to the 30S and 50S ribosomal subunits. Description: In vitro ribosome association assay (sucrose gradient, α-His Western immunoblot), HflX. Conditions: 40 μM nucleotide; compared to apo, GTP, or GMPPNP-bound states. The class given is binding, Staphylococcus aureus. The text has this:
(§4) It is well characterized that rRNA transcription decreases during the stringent response ([39]). In addition, the GTPase activity of ribosome assembly cofactors is inhibited by (p)ppGpp, both of which contribute to a reduction in mature ribosomes within the cell ([27]). To examine mechanistically how (p)ppGpp-GTPase interactions affect the ability of RA-GTPases to associate with ribosomal subunits, we examined the association of each GTPase to either the 30S or 50S ribosomal subunit in the presence of GDP, GTP, ppGpp, and pppGpp, as well as GMPPNP, a nonhydrolyzable analogue of GTP. The production and isolation of immature subunits, which can comprise several different immature states, introduces a large degree of heterogeneity, and so here we, and others, use homogenous mature particles as a system to examine the binding event, rather than the role of GTPase activity in downstream maturation ([11], [12], [29], [40], [41]). His-tagged GTPases were preincubated with highly pure, salt-washed 70S S. aureus ribosomes in a low-magnesium buffer to encourage ribosomal subunit dissociation, and the amount of each GTPase associated with each of the subunits was quantified by Western immunoblotting with anti-His antibodies after sucrose gradient separation. […]
(§5) FIG 2 (p)ppGpp and GDP binding reduces RA-GTPase association to the ribosome. […] After subunit separation and precipitation, bound proteins were detected in the 30S fraction using HRP-conjugated α-His antibodies. […] Bound proteins were detected in the 50S fraction using HRP-conjugated α-His antibodies. […]
(§6) A 500 nM concentration of recombinant 6×His-tagged RA-GTPase was incubated at room temperature for 5 min with 200 nM S. aureus 70S ribosomes in dissociation buffer (20 mM Tris [pH 7.5], 120 mM NH4Cl, 1.5 mM MgCl2, 2 mM β-mercaptoethanol) in the apo form and in the presence of 40 μM GTP, GMPPNP, GDP, ppGpp, or pppGpp. […] Gradients were fractionated by upward displacement of 250-μl aliquots, which were analyzed for RNA content at an absorbance of 260 nm. […]

Assay [8] has as its target Era association to the 30S ribosomal subunit (Staphylococcus aureus, UniProt Q2FGF6). Description: In vitro ribosome association assay (sucrose gradient, α-His Western immunoblot), Era. The format is binding. Conditions: 40 μM nucleotide; compared to apo, GTP, or GMPPNP-bound states.
Text: as §4, §5, §6

Sequence of RsgA (P67682 whole entry): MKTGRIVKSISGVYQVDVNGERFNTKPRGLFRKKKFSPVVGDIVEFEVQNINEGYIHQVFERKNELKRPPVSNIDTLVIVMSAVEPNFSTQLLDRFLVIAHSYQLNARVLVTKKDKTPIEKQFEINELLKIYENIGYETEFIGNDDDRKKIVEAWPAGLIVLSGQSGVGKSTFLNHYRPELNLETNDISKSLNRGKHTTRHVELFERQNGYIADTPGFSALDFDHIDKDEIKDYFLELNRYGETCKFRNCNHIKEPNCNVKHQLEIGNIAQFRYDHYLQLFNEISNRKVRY
Sequence of Era (Q2FGF6 whole entry, the tested form may be a part): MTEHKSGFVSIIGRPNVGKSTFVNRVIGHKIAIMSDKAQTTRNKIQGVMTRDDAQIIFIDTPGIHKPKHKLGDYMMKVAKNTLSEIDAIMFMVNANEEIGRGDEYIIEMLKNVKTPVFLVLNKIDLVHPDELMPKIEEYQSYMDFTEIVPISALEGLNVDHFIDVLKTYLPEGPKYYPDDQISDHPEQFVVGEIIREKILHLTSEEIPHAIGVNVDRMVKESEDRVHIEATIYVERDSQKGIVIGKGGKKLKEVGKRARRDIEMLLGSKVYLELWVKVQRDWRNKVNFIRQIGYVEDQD
Sequence of HflX (Q2FYY9 entry or part of it): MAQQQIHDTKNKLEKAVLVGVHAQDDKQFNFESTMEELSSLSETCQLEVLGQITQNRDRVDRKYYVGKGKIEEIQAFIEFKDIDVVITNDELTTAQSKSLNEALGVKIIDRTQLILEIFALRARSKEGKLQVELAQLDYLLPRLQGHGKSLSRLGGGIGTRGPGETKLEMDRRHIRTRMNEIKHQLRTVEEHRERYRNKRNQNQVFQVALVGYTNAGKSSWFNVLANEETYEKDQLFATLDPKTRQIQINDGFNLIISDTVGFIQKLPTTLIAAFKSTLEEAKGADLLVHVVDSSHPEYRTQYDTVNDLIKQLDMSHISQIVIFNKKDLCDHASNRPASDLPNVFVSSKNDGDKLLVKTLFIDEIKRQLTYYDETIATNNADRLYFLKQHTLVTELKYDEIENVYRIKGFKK
Sequence of RbgA (A0A0H2XK72 entry or part of it): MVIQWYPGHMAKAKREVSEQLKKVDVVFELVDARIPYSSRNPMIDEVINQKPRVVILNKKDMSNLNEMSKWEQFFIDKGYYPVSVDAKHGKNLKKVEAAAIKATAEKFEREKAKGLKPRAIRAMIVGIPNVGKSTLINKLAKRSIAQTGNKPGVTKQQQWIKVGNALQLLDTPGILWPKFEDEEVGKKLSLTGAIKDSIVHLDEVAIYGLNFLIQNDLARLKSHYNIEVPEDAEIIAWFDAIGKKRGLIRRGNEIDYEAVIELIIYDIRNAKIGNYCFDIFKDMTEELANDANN
Sequence of Era association to the 30S ribosomal subunit (Q2FGF6 whole entry): as the sequence (Q2FGF6 whole entry, the tested form may be a part) above

Take `Nc1nc2c(ncn2[C@@H]2O[C@H](COP(=O)(O)OP(=O)(O)OP(=O)(O)O)[C@@H](O)[C@H]2O)c(=O)[nH]1` [GTP]: in assay [1], the “Bmax, HflX” value is recorded as 0.7 ± 0.3. Besides, in assay [2], binding was put at a Kd of 3.6 ± 0.4 µM and the “Bmax, RsgA” value was found to be 0.8 ± 0.0. Moreover, the “kapp2 of HflX association to 50S” value in assay [3] (GTP: hyperbolic, plateau, ppGpp: independent of 50S concentration) is about 2 s⁻¹. The “linear increase in kapp1 of HflX, GTP relative to ppGpp or pppGpp” value in assay [3] (dependence on 50S concentration) came out at 2 fold. In assay [4], the Kd amounted to 18.5 ± 5.4 µM and the “Bmax, RbgA” value worked out at 0.4 ± 0.0. Also, in assay [5], the Kd turned out to be 11.5 ± 1.6 µM and the “Bmax, Era” value came to 0.3 ± 0.0.

As for `Nc1nc2c(ncn2[C@@H]2O[C@H](COP(=O)(O)OP(=O)(O)O)[C@@H](O)[C@H]2O)c(=O)[nH]1` [GDP], in assay [1], the equilibrium dissociation constant (Kd) worked out at 4.9 ± 0.7 µM and the “Bmax, HflX” value came to 0.7 ± 0.0. Besides, in assay [2], the dissociation constant (Kd) amounted to 1.8 ± 0.2 µM and the “Bmax, RsgA” value amounted to 0.9 ± 0.0. Further, in assay [4], the Kd worked out at 6.1 ± 1.1 µM and the “Bmax, RbgA” value turned out to be 0.5 ± 0.0. For the same molecule, in assay [6], the “competition of cold unlabeled nucleotide with 32P-labeled GTP, ppGpp, pppGpp” value is listed as “competing more effectively”. The “reduction in ribosome binding of HflX” value in assay [7] is given as 2 fold. Besides, the “reduction in ribosome binding of Era” value in assay [8] came to 2 fold. Besides, in assay [5], the Kd was 4.9 ± 0.7 µM and the “Bmax, Era” value was 0.5 ± 0.0.
